In paper PMC11233931, “Remodeling tumor‐associated macrophage for anti‐cancer effects by rational design of irreversible inhibition of mitogen‐activated protein kinase‐activated protein kinase 2” (MedComm, 2024) one finds inhibition data, which are given here for 1 compound.

Each structure is given as a SMILES string.

The term inhibition denotes the drop in the measured response relative to a control, in per cent.

Common to all, as to test: Eurofins kinase selectivity profile against 380 other human recombinant kinases (Table S2)
Format in all cases: biochemical

The target in assay [1] is T1, 380 human recombinant protein kinases (Homo sapiens, UniProt P22607).
T1 construct: purchased Eurofins (Celle Lévescault)
To be noted: FGFR3(h), read-out: Inhibition rate. The procedure, abridged:
(§1)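 Off-target profiling: one compound assayed by a commercial provider over 380 recombinant human protein kinases at various concentrations.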

Assay [2] concerns the target T2, 380 human recombinant protein kinases (Homo sapiens, UniProt P57059).
T2 construct: purchased Eurofins (Celle Lévescault)
Conditions: SIK(h), read-out: Inhibition rate (%). In a few lines:
as §1

The target in assay [3] is T3, 380 human recombinant protein kinases (Homo sapiens, UniProt Q13188).
T3 construct: purchased Eurofins (Celle Lévescault)
T3 sequence (Q13188 1-491): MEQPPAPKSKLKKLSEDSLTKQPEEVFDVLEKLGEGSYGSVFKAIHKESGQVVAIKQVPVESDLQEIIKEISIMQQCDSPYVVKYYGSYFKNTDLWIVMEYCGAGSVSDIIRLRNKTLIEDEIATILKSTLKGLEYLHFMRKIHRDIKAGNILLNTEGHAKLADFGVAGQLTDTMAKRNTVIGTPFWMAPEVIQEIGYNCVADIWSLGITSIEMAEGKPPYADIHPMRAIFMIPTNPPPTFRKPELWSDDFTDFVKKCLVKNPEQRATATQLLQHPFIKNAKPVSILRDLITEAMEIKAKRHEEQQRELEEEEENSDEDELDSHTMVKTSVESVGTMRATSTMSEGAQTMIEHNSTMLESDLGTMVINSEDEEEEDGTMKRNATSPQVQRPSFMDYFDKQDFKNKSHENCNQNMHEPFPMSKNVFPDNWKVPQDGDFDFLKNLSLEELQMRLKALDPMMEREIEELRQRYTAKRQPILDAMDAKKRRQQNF
To be noted: MST2(h), read-out: Inhibition rate. In a few lines:
as §1

Assay [4] addresses T4, 380 human recombinant protein kinases (Homo sapiens, UniProt Q99683).
T4 construct: purchased Eurofins (Celle Lévescault)
T4 sequence (Q99683 1-1374): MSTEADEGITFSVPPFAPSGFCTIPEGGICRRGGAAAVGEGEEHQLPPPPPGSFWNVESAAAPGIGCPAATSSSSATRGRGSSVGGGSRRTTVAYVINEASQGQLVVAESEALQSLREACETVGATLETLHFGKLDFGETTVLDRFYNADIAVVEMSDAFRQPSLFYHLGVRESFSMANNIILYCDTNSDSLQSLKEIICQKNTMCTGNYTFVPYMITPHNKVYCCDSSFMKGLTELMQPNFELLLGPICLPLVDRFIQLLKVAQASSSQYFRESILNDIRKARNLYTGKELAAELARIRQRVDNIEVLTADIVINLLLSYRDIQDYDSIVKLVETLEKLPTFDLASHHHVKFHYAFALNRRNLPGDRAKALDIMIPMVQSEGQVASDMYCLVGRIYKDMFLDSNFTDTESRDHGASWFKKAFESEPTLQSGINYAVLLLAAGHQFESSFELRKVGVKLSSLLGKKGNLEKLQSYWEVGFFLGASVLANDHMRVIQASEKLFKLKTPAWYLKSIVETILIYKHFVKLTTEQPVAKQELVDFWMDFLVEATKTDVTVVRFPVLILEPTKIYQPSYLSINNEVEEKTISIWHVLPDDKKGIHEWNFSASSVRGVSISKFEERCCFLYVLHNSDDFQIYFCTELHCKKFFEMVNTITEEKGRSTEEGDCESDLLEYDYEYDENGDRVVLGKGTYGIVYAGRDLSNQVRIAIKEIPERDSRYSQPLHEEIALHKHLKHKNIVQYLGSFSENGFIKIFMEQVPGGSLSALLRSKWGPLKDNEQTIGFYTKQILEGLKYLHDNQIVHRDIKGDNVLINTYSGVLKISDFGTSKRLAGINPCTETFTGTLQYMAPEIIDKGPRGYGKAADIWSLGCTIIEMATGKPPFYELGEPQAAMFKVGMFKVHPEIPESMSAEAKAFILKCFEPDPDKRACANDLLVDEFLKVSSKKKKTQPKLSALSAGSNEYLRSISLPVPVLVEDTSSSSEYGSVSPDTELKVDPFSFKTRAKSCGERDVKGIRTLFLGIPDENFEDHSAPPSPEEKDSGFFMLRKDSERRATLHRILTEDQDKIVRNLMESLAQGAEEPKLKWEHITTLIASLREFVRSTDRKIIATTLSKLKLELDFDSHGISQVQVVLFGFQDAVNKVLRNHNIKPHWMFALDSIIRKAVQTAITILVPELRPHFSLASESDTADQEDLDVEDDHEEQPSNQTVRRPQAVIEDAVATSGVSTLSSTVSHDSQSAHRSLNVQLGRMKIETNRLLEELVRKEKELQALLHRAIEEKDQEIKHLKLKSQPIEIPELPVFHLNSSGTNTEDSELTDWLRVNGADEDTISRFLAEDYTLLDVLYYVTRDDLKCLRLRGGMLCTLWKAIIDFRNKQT
To be noted: ASK1(h), read-out: Inhibition rate. The procedure, abridged:
as §1

The target in assay [5] is T5, 380 human recombinant protein kinases (Homo sapiens, UniProt Q9C098).
T5 construct: purchased Eurofins (Celle Lévescault)
Conditions: DCAMKL3(h), read-out: Inhibition rate. The procedure, abridged: as §1

T2 sequence (P57059 whole entry): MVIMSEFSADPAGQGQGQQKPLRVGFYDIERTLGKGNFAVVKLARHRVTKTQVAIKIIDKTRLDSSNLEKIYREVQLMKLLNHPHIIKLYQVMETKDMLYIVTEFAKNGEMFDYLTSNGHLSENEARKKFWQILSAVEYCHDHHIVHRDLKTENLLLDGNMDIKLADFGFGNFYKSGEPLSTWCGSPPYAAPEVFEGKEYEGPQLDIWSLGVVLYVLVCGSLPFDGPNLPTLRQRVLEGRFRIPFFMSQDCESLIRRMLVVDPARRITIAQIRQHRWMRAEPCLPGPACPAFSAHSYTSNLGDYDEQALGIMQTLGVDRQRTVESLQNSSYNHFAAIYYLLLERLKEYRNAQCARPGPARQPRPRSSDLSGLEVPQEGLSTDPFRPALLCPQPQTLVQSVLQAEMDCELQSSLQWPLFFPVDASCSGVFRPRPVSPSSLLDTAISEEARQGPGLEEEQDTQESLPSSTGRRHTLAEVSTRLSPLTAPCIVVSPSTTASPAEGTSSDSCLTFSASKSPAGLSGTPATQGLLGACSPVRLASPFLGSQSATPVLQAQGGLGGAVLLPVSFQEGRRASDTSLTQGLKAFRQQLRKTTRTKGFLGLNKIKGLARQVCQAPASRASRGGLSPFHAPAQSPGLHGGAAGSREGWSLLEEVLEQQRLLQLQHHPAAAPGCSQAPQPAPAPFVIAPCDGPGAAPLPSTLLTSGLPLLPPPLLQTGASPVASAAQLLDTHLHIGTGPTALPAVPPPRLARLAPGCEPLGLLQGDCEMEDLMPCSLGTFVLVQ
T5 sequence (Q9C098 whole entry): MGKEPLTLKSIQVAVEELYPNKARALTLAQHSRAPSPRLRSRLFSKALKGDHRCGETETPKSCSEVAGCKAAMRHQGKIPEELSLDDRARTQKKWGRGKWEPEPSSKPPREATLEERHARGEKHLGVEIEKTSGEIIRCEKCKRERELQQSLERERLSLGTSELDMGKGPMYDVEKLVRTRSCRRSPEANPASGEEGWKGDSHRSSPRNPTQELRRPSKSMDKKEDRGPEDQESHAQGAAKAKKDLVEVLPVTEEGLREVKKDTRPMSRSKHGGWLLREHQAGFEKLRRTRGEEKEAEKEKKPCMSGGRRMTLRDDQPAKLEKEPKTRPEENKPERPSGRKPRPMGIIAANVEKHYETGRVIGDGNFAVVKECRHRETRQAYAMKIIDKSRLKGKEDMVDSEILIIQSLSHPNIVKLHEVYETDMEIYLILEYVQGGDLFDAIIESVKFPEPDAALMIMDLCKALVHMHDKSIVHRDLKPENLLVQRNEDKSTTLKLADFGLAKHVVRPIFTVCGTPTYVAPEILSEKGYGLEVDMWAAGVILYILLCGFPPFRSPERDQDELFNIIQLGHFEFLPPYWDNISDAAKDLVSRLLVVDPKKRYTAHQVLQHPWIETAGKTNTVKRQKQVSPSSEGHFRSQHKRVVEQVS
T1 sequence (P22607 23-806): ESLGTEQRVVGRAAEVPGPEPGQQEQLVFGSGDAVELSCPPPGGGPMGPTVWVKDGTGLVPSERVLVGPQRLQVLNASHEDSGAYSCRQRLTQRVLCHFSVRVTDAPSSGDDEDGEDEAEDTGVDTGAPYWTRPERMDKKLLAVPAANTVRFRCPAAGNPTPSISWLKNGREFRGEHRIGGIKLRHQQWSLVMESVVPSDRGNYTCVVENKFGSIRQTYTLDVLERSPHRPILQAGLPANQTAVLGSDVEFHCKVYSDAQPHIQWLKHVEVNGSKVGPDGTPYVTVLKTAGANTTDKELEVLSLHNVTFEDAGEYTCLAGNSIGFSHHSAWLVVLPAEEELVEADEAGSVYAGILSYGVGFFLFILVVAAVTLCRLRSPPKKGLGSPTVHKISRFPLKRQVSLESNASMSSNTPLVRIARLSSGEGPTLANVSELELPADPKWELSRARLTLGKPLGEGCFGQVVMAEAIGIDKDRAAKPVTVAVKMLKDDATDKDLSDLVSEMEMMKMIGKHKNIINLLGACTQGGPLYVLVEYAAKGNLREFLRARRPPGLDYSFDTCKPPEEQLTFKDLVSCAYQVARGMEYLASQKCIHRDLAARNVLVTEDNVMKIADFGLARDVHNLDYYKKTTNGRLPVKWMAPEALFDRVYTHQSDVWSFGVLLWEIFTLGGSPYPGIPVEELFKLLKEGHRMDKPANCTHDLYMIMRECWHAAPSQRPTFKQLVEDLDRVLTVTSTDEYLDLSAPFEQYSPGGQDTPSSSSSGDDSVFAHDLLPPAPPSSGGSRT

For the compound `C=CC(=O)Nc1cc(-c2cc(-c3cc4c([nH]3)CCNC4=O)ccn2)ccc1OC(F)(F)F` [compound 11], the inhibition at 0.01 µM in assay [1] (10 nM) is 2%; in assay [2] (10 nM), 2%; in assay [3] (10 nM), -7%; in assay [4] (10 nM) it was 14%; in assay [5] (10 nM) it was -1%. The inhibition at 0.1 µM in assay [1] (100 nM) was 9%; in assay [2] (100 nM), 4%; in assay [3] (100 nM), 0%; in assay [4] (100 nM), 33%; in assay [5] (100 nM) it was 6%. In addition, the inhibition at 1 µM is 0% in assay [1] (1000 nM); -3% in assay [2] (1000 nM); 6% in assay [3] (1000 nM); 83% in assay [4] (1000 nM); 26% in assay [5] (1000 nM).
